Laboratory results: ChEMBL document CHEMBL1201862, “PubChem BioAssay data set” (2004)
The source made the active and inactive calls.

What was measured:
[1] = A549 cell cytotoxicity, dose response, CellTiter-Glo luminescence, dry powder, set 17 (AID 1117284); format: functional, cell-based
[2] = A549 cell cytotoxicity, dose response, cytotoxicity control, 24 h, CellTiter-Glo luminescence, cherry-picks (AID 1053115); format: functional, cell-based; settings: A549, 24 h
[3] = HepG2 cell cytotoxicity, dose response, cytotoxicity control, luminescence plate reader, powder samples, set 2 (AID 651860); format: functional, cell-based
[4] = Late-stage results from the probe development effort to identify antagonists of arginine vasopressin receptor 1a (AVPR1a): fluorescence-based cell-based dose response AVPR1a inhibition assay.; format: functional
[5] = Late-stage results from the probe development effort to identify antagonists of arginine vasopressin receptor 1a (AVPR1a): fluorescence-based cell-based dose response OXTR inhibition counterscreen assay.; format: functional
[6] = target: Vasopressin V2 receptor (Homo sapiens, UniProt P30518); assay: Late-stage results from the probe development effort to identify antagonists of arginine vasopressin receptor 1a (AVPR1a): fluorescence-based cell-based dose response AVPR2 inhibition counterscreen assay.; format: functional
[7] = target: Vasopressin V1b receptor (Homo sapiens, UniProt P47901); assay: Late-stage results from the probe development effort to identify antagonists of arginine vasopressin receptor 1a (AVPR1a): fluorescence-based cell-based dose response AVPR1b inhibition counterscreen assay.; format: functional
[8] = YAP1 pathway inhibition via CTGF transcript levels, dose response, cell-based, DLD1 colon cancer, RT-qPCR, cherry-pick (AID 1053122); format: functional; settings: Cancer cell lines
[9] = CTGF mRNA reduction under YAP1 overexpression, dose response, mechanism study for YAP1 pathway inhibitor project, DLD1 cells, RT-qPCR, cherry-pick (AID 1053127); format: functional, cell-based; settings: DLD-1
[10] = P. falciparum Dd2 growth inhibitors, dose response, SYBR Green, dry powder samples, set 9 (AID 1159568); format: functional, cell-based
[11] = A549 cell cytotoxicity, dose response, cytotoxicity control, plate reader, dry powder, set 6 (AID 743312); format: functional, cell-based
[12] = cells; settings: HEK293
[13] = Mtb BioA inhibitors by displacement, dose response, biochemical, coupled fluorescence displacement, 20-point, dry powder (AID 743357); format: functional
[14] = P. falciparum 3D7-ScDHODH growth inhibitors, dose response, SYBR Green, dry powder samples (AID 1159570); format: functional, cell-based;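 further: parasite growth measured after 72 hours of compound exposure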
[15] = P. falciparum Dd2 growth inhibitors, dose response, SYBR Green, dry powder samples (AID 1159566); format: functional, cell-based;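 further: potency for growth inhibition with lower SYBR green DNA signal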
[16] = P. falciparum Dd2 growth inhibitors, dose response, SYBR Green, cherry-picked samples (AID 1159567); format: functional, cell-based
[17] = Plasmodium falciparum Dd2 Sybr green parasite growth Measured in Cell-Based and Microorganism Combination System Using Plate Reader - 2153-01_Inhibitor_Dose_DryPowder_Activity_Set3.; format: functional
[18] = HepG2 cell cytotoxicity, dose response, cytotoxicity control, plate reader, dry powder samples (AID 1159569); format: functional, cell-based;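 further: inhibitor potency with signal falling toward the positive control level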
[19] = HepG2 cell cytotoxicity, dose response, cytotoxicity control, cherry-picked samples (AID 1159577); format: functional, cell-based
[20] = P. falciparum ATP4 D1247Y mutant growth inhibitors, dose response, NITD609-resistant line, SYBR Green, dry powder (AID 1159571); format: functional, cell-based;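 further: parasites synchronized at ring stage by sorbitol before testing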
[21] = cytotoxicity toward HCT116 cells – cell-based, CellTiter-Glo luminescence, IC50, dose response (AID 1117332); format: functional; settings: HCT-116
[22] = CellTiter-Glo luminescent dose response of DLD-1 viability loss (AID 1117352); format: functional
[23] = SNU-C1 cell viability reduction, dose response, CellTiter-Glo luminescence (AID 1117323); format: functional, cell-based
[24] = cytotoxicity toward Colo320 cells – cell-based, CellTiter-Glo luminescence, IC50, dose response (AID 1117334); format: functional; settings: COLO 320
[25] = cytotoxicity toward HT-29 cells – cell-based, CellTiter-Glo luminescence, IC50, dose response (AID 1117330); format: functional
[26] = RKO cell viability reduction, dose response, CellTiter-Glo luminescence (AID 1117322); format: functional
[27] = HCT116 cell viability decrease, GSK3B pretreatment – CellTiter-Glo, IC50, dose response (AID 1117339); format: functional; settings: HCT-116

Chain of Vasopressin V2 receptor (P30518 whole entry): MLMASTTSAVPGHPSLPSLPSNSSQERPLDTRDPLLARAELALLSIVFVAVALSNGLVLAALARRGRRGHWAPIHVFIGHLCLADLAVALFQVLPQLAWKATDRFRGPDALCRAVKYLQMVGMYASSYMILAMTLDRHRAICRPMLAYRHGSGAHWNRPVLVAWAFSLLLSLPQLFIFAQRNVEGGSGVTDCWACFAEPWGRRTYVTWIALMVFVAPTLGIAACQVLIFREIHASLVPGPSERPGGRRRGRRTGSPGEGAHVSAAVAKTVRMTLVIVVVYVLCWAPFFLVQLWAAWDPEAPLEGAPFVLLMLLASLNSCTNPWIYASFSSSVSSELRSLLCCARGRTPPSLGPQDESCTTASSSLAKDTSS
Chain of Vasopressin V1b receptor (P47901 whole entry): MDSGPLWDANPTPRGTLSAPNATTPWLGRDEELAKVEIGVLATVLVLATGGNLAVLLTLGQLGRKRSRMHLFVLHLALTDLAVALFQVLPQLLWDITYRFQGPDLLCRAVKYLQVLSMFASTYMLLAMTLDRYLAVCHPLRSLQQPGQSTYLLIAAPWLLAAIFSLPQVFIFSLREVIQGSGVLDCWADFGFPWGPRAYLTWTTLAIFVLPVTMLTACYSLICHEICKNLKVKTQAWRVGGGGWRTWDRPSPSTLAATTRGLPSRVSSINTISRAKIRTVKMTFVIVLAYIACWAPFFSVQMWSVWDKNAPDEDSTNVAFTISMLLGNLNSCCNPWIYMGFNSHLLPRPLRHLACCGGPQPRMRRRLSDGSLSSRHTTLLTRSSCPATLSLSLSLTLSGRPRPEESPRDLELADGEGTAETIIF

C[C@H](CO)N1C[C@H](C)[C@@H](CN(C)Cc2ccc(-c3ccccc3)cc2)Oc2cc(C#C[C@@H](C)O)ccc2S1(=O)=O
AC50 [1]: 42.5 µM (active)
AC50 [2]: 52.6 µM (active)

Cc1cc(C)c(S(=O)(=O)Nc2cc(C(C(=O)OC(C)C)C(=O)C(F)(F)F)c(O)c3ccccc23)c(C)c1 (configuration not stated)
AC50 [3]: > 52 µM (inactive)

Cc1ccccc1N1CCN(C(=O)N(CC2CC2)c2ccc(Cl)cc2)CC1
IC50 [4]: 0.0027 µM (active)
IC50 [5]: 0.046 µM (active)
IC50 [6]: 1.02 µM (active)
IC50 [7]: 12.8 µM (inactive)

COc1cccc(-c2ccc([C@H]3[C@H]4CN(C(=O)Cc5ccncc5)CCCCN4[C@H]3CO)cc2)c1
AC50 [8]: 2.79 µM (active)
AC50 [9]: 9.34 µM (active)

C[C@@H]1CCCCO[C@H](CN(C)S(=O)(=O)c2ccc(F)cc2)[C@@H](C)CN([C@H](C)CO)C(=O)c2cc(N(C)C)ccc2O1
AC50 [10]: 11.4 µM (active)

Cc1ccc(C(C)C)c(OCCn2c(=O)[nH]c3ccccc32)c1
AC50 [11]: 23.1 µM (active)
AC50 [12]: 32.4 µM (active)

CN(C)C(=O)c1ccc(N2CCN(C(=O)c3ccc4c(c3)OCO4)CC2)cc1
AC50 [13]: 14 µM (active)

CO[C@@H]1CN(C)C(=O)c2ccc(NC(=O)Nc3ccccc3Cl)cc2OC[C@@H](C)N(C)C[C@H]1C
AC50 [14]: 4.25 µM (active)
AC50 [15]: 0.102 µM (active)
AC50 [16]: 0.666 µM (active)
AC50 [17]: 0.446 µM (active)
AC50 [18]: 62.2 µM (active)
AC50 [19]: > 39 µM (inactive)
AC50 [20]: 0.512 µM (active)

Cc1ccc2c(Br)cc(Br)c(O)c2n1 [BROQUINALDOL]
IC50 [21]: 1.16 µM (active)
IC50 [22]: 4.77 µM (active)
IC50 [23]: 12.8 µM (inactive)
IC50 [24]: 0.001 µM (active)
IC50 [25]: > 6.67 µM (inactive)
IC50 [26]: 0.311 µM (active)
IC50 [27]: 1.03 µM (active)
